According to US6914077B2, “Mite repellant and/or miticide composition” (Kao Corporation, priority 2001, dated 2005):
Like-named read-outs stand apart in the source and are kept apart here.

Columns and labels:
Type in all cases: in vivo
[1] = test system: Dermatophagoides farinae Hughes; assay: Mite repellent effect test (impregnated black paper); details: mites counted after 15 minutes, vs acetone control
Experimental: The repellent effects of compounds shown in Table 1 were evaluated in accordance with the following method. 1. Mite (or mites) under test: Dermatophagoides farinae Hughes. 2. Testing method: Each test compound was diluted with acetone, black paper 2.5 cm square was impregnated with the diluted test compound in such a manner that the test compound is impregnated in a proportion of 100 μg or 1,000 μg per cm^2 and the black paper was air-dried under room temperature for 2 hours. Black paper treated with acetone alone was also provided as a control group. Mites grown at high density were transferred together with a medium to a glass batt (15×20 cm), and a sheet of gauze cut out in the same size was placed thereon. This medium was placed in a plastic closed container controlled at relative humidity of at least 85% with saturated brine and incubated at 25° C. Three sheets of the black paper treated with the test compound were arranged side by side at intervals of at least 5 mm on the gauze to count the number of the mites climbed up the front and back surfaces of the black paper after 15 minutes. This process was repeated 3 times to find an average value, and it was compared with the control group to calculate out a repelling rate in accordance with the following equation. Repelling rate={(A−B)/A}×100(%) wherein A is the number of mites climbed up in the control group, and B is the number of mites climbed up in the treated group.

[2] = test system: Dermatophagoides farinae Hughes; assay: Mite growth inhibition test in treated medium; details: for inhibition at 0.045 % strength: 0.045 % by weight in medium; for inhibition at 0.12 % strength: 0.12 % by weight in medium; for inhibition at 0.23 % strength: 0.23 % by weight in medium; for inhibition at 0.34 % strength: 0.34 % by weight in medium
Experimental: The inhibitory effect of methyl dihydrojasmonate on the growth of mites was evaluated in accordance with the following method. • 1. Mite (or Mites) under test: Dermatophagoides farinae Hughes. • 2. Testing method:
After a predetermined amount of methyl dihydrojasmonate diluted with ethanol was added to mite-free sterilized medium (10 g; MF powder feed; Oriental Yeast Co., Ltd.), and both were mixed, the mixture was air-dried at room temperature for at least 3 hours to provide a treated group. A medium mixed with ethanol was provided as a control group. Mites sufficiently grown with the same medium as described above in advance were fully mixed with the medium, and this mixture (1 g) was mixed into the test medium containing methyl dihydrojasmonate and control medium, respectively. After fully stirred, the mites were raised at 25° C. for 22 days. A sample (0.1 g) was taken out of each medium to count the number of active mites through a microscope, thereby calculating out a mite growth-inhibiting rate. Incidentally, the test was repeated 3 times to conduct the evaluation in terms of the average value thereof. Mite growth-inhibiting rate={(T−S)/T}×100 (%) wherein T is the number of viable mites in the control group, and S in the number of viable mites in the treated group.

[3] = test system: Dermatophagoides farinae Hughes; assay: Miticidal effect test (impregnated folded filter paper); details: 1,000 μg per cm^2 on filter paper, 25° C.
Experimental: The miticidal effects of compounds shown in Table 2 were evaluated in accordance with the following method. • 1. Mite or Mites under test: Dermatophagoides farinae Hughes. • 2. Testing method:
Each test compound was diluted with acetone, filter paper 5×10 cm in size was impregnated with the diluted test compound in such a manner that the test compound is impregnated in a proportion of 1,000 μg per cm^2, and the filter paper was air-dried at room temperature for 2 hours. Filter paper treated with acetone alone was also provided as a control group. Each filter paper was folded in two, and 20 to 40 mites were freed therein to close the open portion with aclip in such a manner that the mites cannot escape. After the filter paper was incubated for 24 hours or 48 hours in an environment of 25° C. and relative humidity of at least 80%, the numbers of the living or dead mites are calculated through a stereoscopic microscope. This process was repeated 3 times to find an average lethality, and it was compared with the untreated group to calculate out a compensated lethality in accordance with the following equation. Compensated lethality={(Y−X)/(100−X)}×100 (%) wherein X is an average lethality in the control group, and Y is an average lethality in the treated group.

[4] = concentration of compound 100 μg/cm^2 on black paper
[5] = concentration of compound 1,000 μg/cm^2 on black paper
[6] = 8th day, read-out: Growth-inhibiting rate on the 8th day
[7] = 22nd day, read-out: Growth-inhibiting rate on the 22nd day

CC/C=C\CC1=C(C)CCC1=O [cis-Jasmone]
Repelling rate [1, 4]: 72%
Repelling rate [1, 5]: 85%

CCCCCC1C(=O)CCC1CC(=O)OC (stereo not drawn) [Methyl dihydrojasmonate]
Repelling rate [1, 4]: 90%
Repelling rate [1, 5]: 94%
inhibition at 0.045 % strength [2, 6]: 75%
inhibition at 0.045 % strength [2, 7]: 54%
inhibition at 0.12 % strength [2, 6]: 86%
inhibition at 0.12 % strength [2, 7]: 61%
inhibition at 0.23 % strength [2, 6]: 93%
inhibition at 0.23 % strength [2, 7]: 69%
inhibition at 0.34 % strength [2, 6]: 92%
inhibition at 0.34 % strength [2, 7]: 80%
Compensated lethality ([3]; incubation time 24 hr): 100%
Compensated lethality ([3]; incubation time 48 hr): 100%

CC/C=C\CC1C(=O)CCC1CC(=O)OC (stereo not drawn) [Methyl jasmonate]
Repelling rate [1, 4]: 93%
Repelling rate [1, 5]: 97%

CCCCCC1=C(C)CCC1=O [Dihydrojasmone]
Repelling rate [1, 4]: 80%
Repelling rate [1, 5]: 83%

C=C(C)C1CC=C(C)C(=O)C1 (stereo not drawn) [Carvone, reference compound]
Repelling rate [1, 4]: 10%
Repelling rate [1, 5]: 29%

C/C(=C\CO)CCC[C@H](C)CCC[C@H](C)CCCC(C)C [Phytol]
Repelling rate [1, 4]: 52%
Repelling rate [1, 5]: 72%

CC(C)=CCCC(C)=CCCC(C)=CCO [Farnesol]
Repelling rate [1, 4]: 94%
Repelling rate [1, 5]: 96%
Compensated lethality ([3]; incubation time 24 hr): 63%
Compensated lethality ([3]; incubation time 48 hr): 77%

C=CC(C)(O)CCC=C(C)C (stereo not drawn) [Linalool, reference compound]
Repelling rate [1, 4]: 47%
Repelling rate [1, 5]: 57%

C=CC(C)(O)CCC=C(C)CCC=C(C)C (stereo not drawn) [Nerolidol]
Repelling rate [1, 4]: 80%
Repelling rate [1, 5]: 79%
